# How the values were obtained:
# Type in all cases: cell-based, human
# FLG monomer = FLG monomer in three-dimensional cultured skin, Western blotting (Example 11); details: 1 μM, immunoblotting
# Method: In this example, the expression-increasing effect of Compound 1 on FLG monomer was examined by using a three-dimensional cultured skin. The expression of the FLG monomer was confirmed by Western blotting.
# In this example, the same procedures as those in the steps 1) to 3) of Example 10 were conducted. It should be noted that as a medicament, D) Comparative Compound 3 (M344) was used, as well as A) Compound 1 and C) Comparative Compound 2 of Example 10.
# 4) The three-dimensional cultured skin obtained in the same manner as in the steps 1) to 3) of Example 10 was recovered, and was cut into pieces with scissors. Then, 100 μl of Lysis buffer (0.1 M Tris-HCl (pH 9.0), 6 M Urea, 1% 2-mercapto-ethanol, 1% SDS, 1 mM EDTA, and Protease inhibitor cocktail) were added and the cells were homogenized with an electrically powered pestle. The homogenized cells were centrifuged at 15,000 rpm at 4° C. for 20 minutes, and the supernatant was recovered to be used as a sample for measurement. The total protein in the sample was quantified by using a protein assay reagent (Bio-Rad Laboratories, Inc.) according to the manufacturer's protocol. The protein was adjusted so that each sample contained 15 μg protein/lane, and the samples were subjected to electrophoresis by SDS-PAGE (Invitrogen, NuPAE Novex Bis-Tris mini Gel 4 to 12%) under the conditions of 100 V and 2 hours. As a marker, Precision Plus Protein Standards (Bio-Rad Laboratories, Inc.) was used. The proteins separated by the electrophoresis were transferred to a PVDF membrane (blotting), and the expression of FLG monomer was confirmed by using an anti-FLG antibody (Filaggrin AKH1, Santa Crus). At that time, Anti-mouse IgG-HRP (GE Healthcare) was used as a secondary antibody, and Amersham ECL Plus Western Blotting Detection Reagents (GE Healthcare) was used as a color developer.
# GPR142 [1] = experiment: Blocking effect by GPR142 RNAi in NHEK cells (Examples 5 and 6); details: GPR142 siRNA, compound 10 nM, 1 day
# Method: In this example, it was confirmed that the expression-inducing effects of Compound 1 on GPR142 mRNA and FLG mRNA in NHEK cells were blocked by GPR142 RNAi.
# 1) 5×10^4 cells/well of NHEK cells (Invitrogen) were plated on a 24-well plate. Then, 500 μl of a culture medium containing a medium for proliferating normal human epidermal keratinocytes (HuMedia-KG2, KURABO INDUSTRIES LTD.) supplemented with hEGF (0.1 ng/ml), insulin (10 μg/ml), hydrocortisone (0.5 μg/ml), gentamycin (50 μg/ml), amphotericin B (50 ng/ml), and bovine brain pituitary extract (BPE) (0.4%, v/v) were added to the plate, and the cells were cultured under the conditions of 37° C. and 5% CO2.
# 2) After culture under the conditions of the step 1) for 1 day, the medium was exchanged for the culture medium of the step 1) to which CaCl2 (1.2 mM in terms of Ca) was further added as Ca, and culture was conducted under the conditions of 37° C. and 5% CO2. After culture for 1 day, the medium was exchanged for the same culture medium containing Ca, and culture was further conducted for 1 day.
# 3) The NHEK cells of the step 2) were transfected with 50 nM of siRNA per well of the 24-well plate by using a transfection reagent, Lipofectamine RNA Max (Invitrogen) according to the manufacturer's protocol.
# The sequences of the used three kinds of GPR142 siRNAs and the sequences of the used control siRNAs (all the siRNAs are manufactured by Invitrogen) are described below.
# 4) After culture for 1 day after the transfection with siRNA in the step 3), the medium was exchanged for the culture medium of the step 1) to which a DMSO solution of Compound 1 was added at 10 nM per well, and culture was further conducted for 1 day. As a control, a solvent only (vehicle) was added.
# 5) An extraction reagent (TRIzol™, Invitrogen) was used, and according to the manufacturer's protocol, total RNA was extracted from each of cells treated with the medicament. A reverse transcriptase reagent (Prime Script™, Takara) was used, and according to the manufacturer's protocol, cDNA was prepared from the total RNA. Next, real-time PCR was conducted by using the following primers and SYBR™ Premix Ex Taq (Takara) with a CFX96 real-time PCR instrument according to the manufacturer's protocol, and the amounts of GPR142 mRNA and FLG mRNA expression were measured. The result of measurement is shown as a GAPDH ratio.
# In this example, it was confirmed that the expression-inducing effects of Compound 2 or 3 on GPR142 mRNA and FLG mRNA in NHEK cells were blocked by GPR142 RNAi.
# NHEK cells were transfected in the same manner as in Example 5 except that, in the steps 1) to 3) of Example 5, two kinds of GPR142 siRNAs and two kinds of control siRNAs, i.e., GPR142-1 (#HSS139493) and GPR142-3 (#HSS179846) and Control-1 (LOW GC, #129350-200), and Control-3 (HIGH GC, #129350-400) were used as GPR142 siRNAs and control siRNAs, respectively. After culture for 1 day after the transfection was conducted in the same manner as in the step 4) of Example 5, the medium was exchanged for the culture medium to which each of a DMSO solution of Compound 1, a DMSO solution of Compound 2, or a methanol solution of Compound 3 was added at 10 nM per well, and culture was further conducted for 1 day. As a control, a solvent only (vehicle) was added. Regarding each of cells treated with the medicament, real-time PCR was conducted to measure the amounts of GPR142 mRNA and FLG mRNA in the same manner as in the step 5) of Example 5. The results of the measurement are shown as a GAPDH ratio.
# GPR142 [2] = experiment: Action on adenylate cyclase activity (cAMP) in GPR142-overexpressing HEK293T cells (Examples 8 and 9); details: GPR142-overexpressing HEK293T cells, 1,000 nM, forskolin 10 μM, IBMX 1 mM, 20 minutes
# Method: In this example, the cAMP production-suppressing effect of Compound 1 was confirmed.
# 1) 6×10^4 cells/well of HEK293T cells were plated on a collagen-coated 24-well plate, a culture medium containing DMEM medium (Invitrogen) supplemented with penicillin (50 μg/ml), streptomycin (50 μg/ml), and fetal bovine serum (FBS) (10%, v/v) was added to the plate, and the cells were cultured under the conditions of 37° C. and 5% CO2.
# 2) A GPR142PCXN mammalian expression vector was prepared in the same manner as in the step 2) of Example 7.
# 3) After culture for 1 day under the conditions of the step 1), HEK293T cells were transfected with 0.2 μg of the GPR142PCXN mammalian expression vector per well by using a transfection reagent Fugene™ HD (Promega Corporation) according to the manufacturer's protocol. As a control, cells transfected only with the PCXN mammalian expression vector were used.
# 4) After culture for 1 day after the transfection described above, 1 mM of isobutylmethylxanthine (IBMX), which was a cAMP phosphodiesterase inhibitory substance, was added to HEK293T cells, and thereafter, the cells were cultured for 10 minutes at 37° C.
# 5) Next, the medium was exchanged for the culture medium to which 0.1 nM to 1000 nM of a DMSO solution of Compound 1, 10 μM of forskolin, and 1 mM of IBMX per well were added, and the cells were further cultured for 20 minutes at 37° C. As a control, a solvent (vehicle), 10 μM of forskolin, and 1 mM of IBMX were added.
# 6) The cells cultured in the step 5) were lysed by 0.1 mol/L of HCl. The cAMP concentration within the cells was measured by using Cyclic AMP EIA Kit (Cayman Chemical Company) according to the manufacturer's protocol. The result is shown as the ratio (%) of the cAMP concentration in the cells treated with Compound 1 with respect to the cAMP concentration in the control example defined as 100%.
# In this example, the cAMP production-suppressing effect of Compound 2 or 3 was confirmed.
# HEK293T cells were cultured in the same manner as in the steps 1) to 4) of Example 8. Next, the cells were cultured in the same manner as in the step 5) of Example 8 except that, in the step 5) of Example 8, each of a methanol solution of Compound 3, a DMSO solution of Compound 2, and a DMSO solution of Comparative Compound 2 was used at 1,000 nM per well instead of Compound 1. The cAMP concentration in the cultured cells was measured in the same manner as in the step 6) of Example 8.
SMILES,production of FLG monomer (FLG monomer),induction of FLG mRNA expression: dependence on GPR142 (GPR142 [1]),decrease of cAMP production (GPR142 [2])
"CN(C)c1ccc(C(=O)NCCCCCCC(=O)NO)cc1 [Comparative Compound 3, 4-Dimethylamino-N-(6-hydroxycarbamoylhexyl)benzamide, reference compound]",clear production of FLG monomer was not observed,–,–
"COC(=O)CNC(Cc1ccccc1)C(=O)Nc1cc(-c2ccncc2)nn1C.Cl.Cl (stereo not drawn) [Compound 3, Methyl 2-(1-(1-methyl-3-(pyridine-4-yl)-1H-pyrazol-5-ylamino)-1-oxo-3-phenylpropan-2-ylamino)acetate dihydrochloride]",–,mediated by GPR142,about 24%

# Source: patent US20150190416A1, “FILAGGRIN PRODUCTION PROMOTER, THERAPEUTIC AGENT FOR DISEASES ASSOCIATED WITH REDUCTION IN PRODUCTION OF FILAGGRIN, AND METHOD FOR SCREENING FOR SAID THERAPEUTIC AGENT” (KYOTO UNIVERSITY, priority 2012, published 2015)
